Laboratory results reported in patent publication US11465980B2, “6-membered aza-heterocyclic containing delta-opioid receptor modulating compounds, methods of using and making the same” (Trevena, Inc., priority 2015, dated 2022).

How the values were obtained:
rat [1] = assay: Tactile allodynia produced by nitroglycerin (migraine model, rat); type: in vivo; conditions: route sc, nitroglycerin 10 mg/kg ip, p < 0.05 vs vehicle
mouse [2] = assay: Tactile allodynia produced by nitroglycerin (migraine model, mouse); type: in vivo; conditions: route sc, nitroglycerin 10 mg/kg ip, p < 0.05 vs vehicle, read-out: Active Migraine Doses
Protocol: Compounds were tested for efficacy in rodent models of nitroglycerine induced migraine. In this model both rats and mice can be induced to have a behavioral response consistent with the progression of a migraine attack by the intraperitoneal injection of nitroglycerin. In this test mice or rats (n=8/group) are given an intraperitoneal injection of nitroglycerin at 10 mg/kg. After 90 minutes the animals are subcutaneously dosed with test compound. A measurement of mechanical allodynia will be obtained using the up/down method with seven von Frey monofilaments. There is a specific series used for rat and mouse. Each monofilament is delivered to the hind paw for approximately 1-2 seconds. If there is a response, the next lower force will be delivered. This procedure will be performed until no response was made at the highest force or until four stimuli are administered following the initial response. The 50% paw withdrawal threshold for the hind paw will be calculated using the following formula: [Xth]log=[vFr]log+ky where [vFr] is the force of the last von Frey used, k is the average interval (in log units) between the von Frey monofilaments, and y is a value that depends upon the pattern of withdrawal responses. Testing for tactile sensitivity will be performed and a withdrawal value will be assigned as the tactile sensitivity (expressed in grams of force required to elicit a response) for the injected paw for each animal. Data is presented as the mean grams required to produce a hind paw withdrawal from the von Frey stimulus. […] Compounds found to be effective in this model of migraine at the doses indicated, although other doses may also be active. Other compounds described herein were not necessarily tested, but are expected to be able have some level of efficacy.

adult male C57 mice = assay: Tail suspension test (TST); type: in vivo, mouse; conditions: Mus musculus; route sc, po; p < 0.05 compared to vehicle-treated mice; read-out: Active TST Dose
Protocol: The experiments were performed using adult male C57 mice (6-10 weeks of age, 20-30 g, Hilltop Lab, PA). The mice were housed in standard rodent cages with stainless steel mesh wire bar lids in groups of 4 with controlled temperature and light cycle (6:00 a.m.-6:00 p.m.). Animals were given free access to food (Harlan Teklad Global 18% protein (Madison, Wis.)) and water during a minimum 2-day habituation period to the laboratory. Animals that were used in the study were handled, housed, and sacrificed (using compressed CO2) in accord with the current NIH guidelines regarding the use and care of laboratory animals, and all applicable local, state, and federal regulations and guidelines. Animals are identified by cage number, and by markings applied to the proximal tip of the tail using a permanent marker. Group sizes (n=8, and therefore 30-50 animals per study) provide reliable estimates of treatment effects, and this species and strain of mouse has been recognized as appropriate for pharmacology studies.
To measure efficacy of the compounds the compounds were tested using a tail suspension test. The tail suspension test is a behavioral test used to evaluate the efficacy of antidepressant drugs in rodents. In the TST, mice (n=8/group) were suspended by the tail with tape approximately 30-50 cm above the lab bench. Mice are positioned such that the base of their tail is perpendicular to the lab bench. Each mouse is given 1 trial that last 6 minutes. The total duration of immobility is calculated as the percentage of time that the mouse is immobile. The duration of immobility is the main parameter measured. This is calculated from the cumulated time during which the animals is absent of initiated movements including passive swaying. When antidepressant drugs are administered, immobility is decreased by a variety of classes of antidepressant drugs. One or more of the compounds show antidepressant activity.

mouse [3] = assay: Tactile allodynia produced by intraplantar Freund's Complete Adjuvant, von Frey (mouse); type: in vivo; conditions: route po, p < 0.05 vs vehicle
Protocol: (§1) Animals were acclimated to the vivarium for at least 48 hr prior to behavioral testing. Inflammation was induced for both rodent species with the administration of an intraplantar (subcutaneous injection into the plantar surface of the hind paw, i.pl.) injection of 0.10 ml Freund's Complete Adjuvant (FCA).
For mouse studies, the experiments were conducted 48 hours after FCA administration. Tactile allodynia was measured using a series of von Frey monofilaments. These filaments are bendable, plastic and intended to poke, not penetrate, the skin. Animals were placed in a Plexiglas chamber (approximately 10 cm×20 cm×25 cm) and allowed to habituate for 5-10 minutes. The chamber was positioned on top of a mesh screen so that von Frey monofilaments can be presented to the plantar surface of the hind paw that is inflamed. The measurement of tactile sensitivity for the injected hind paw is obtained using the up/down method (LaBuda and Little, 2005, J Neurosci. Methods, 144, 175) with […]. Each trial will start with a von Frey force of 0.6 grams delivered to the hind paw for approximately 1-2 seconds. If there was no withdrawal response, the next higher force was be delivered. If there was a response, the next lower force was delivered. This procedure was performed until no response was made at the highest force (2 grams) or until four stimuli are administered following the initial response. The 50% paw withdrawal threshold for the hind paw was be calculated using the following formula: [Xth]log=[vFi]log+ky where [vFr] is the force of the last von Frey used, k is the average interval (in log units) between the von Frey monofilaments, and y is a value that depends upon the pattern of withdrawal responses (Dixon, Annual Review Pharmacol Toxicol, 1980, 20, 441).

rat [4] = assay: Mechanical allodynia after Freund's Complete Adjuvant, Randall-Selitto (rat); type: in vivo; conditions: route sc, p < 0.05 vs vehicle
Protocol: as §1
For rat studies, the experiments were conducted 24 hours after CFA administration. Rats are tested for mechanical allodynia in a Randall-Selitto apparatus. The inflamed paw is put on a pedestal and a pointed force of increasing intensity (0 to 250 grams) is applied to the paw. When the animal struggles to withdraw from the force the test is stopped and the force to induce that struggle is recorded. Data may be presented as mean grams of force to withdrawal or a percentage of the maximum possible effect.

rat [5] = assay: Hemilesioned rat 6-OHDA model (bar, drag, rotarod tests); type: in vivo; conditions: route sc, p < 0.05 vs vehicle
Protocol: Compounds were tested for efficacy in reversing akinesia and bradykinesia in two well accepted rodent Parkinson's disease (PD) models; the haloperidol-induced rat catalepsy and 6-OHDA rat hemiparkinson lesion models.
In the hemilesioned rat 6-OHDA model, the effect of compound on the akinetic response to lesioning of the contralateral forepaw in the bar test and stepping activity as measured by the drag test were determined. […] This assay examines efficacy for reversing PD motor symptoms (i.e. akinesia/bradykinesia and gait abilities). The behavioral readouts will include immobility time in the bar test (akinesia), number of steps in the drag test (akinesia/bradykinesia) and time spent on rod in the rotarod test (overall gait ability, gross motor behavior). Compounds were administered subcutaneously and efficacy was evaluated between 30 and 90 min post dose.

SMILES: COc1ccc([C@@H]2CCN(CCc3ccccc3)[C@H](C)[C@H]2COc2ccc3c(c2)C(=O)NC3)cc1 [Compound B0707, (−)-6-{[(trans, trans)-4-(4-methoxyphenyl)-2-methyl-1-(2-phenylethy)piperidin-3-yl]methoxy}-2,3-dihydro-1H-isoindol-1-one]
- Active Migraine Doses (rat [1]): ≤10 mg/kg
- minimal effective dose (mouse [2]): ≤ 10 mg/kg
- minimal effective dose (adult male C57 mice): ≤ 30 mg/kg
- Active CFA Dose (mouse [3]): ≤30 mg/kg
- Active CFA Dose (rat [4]): ≤10 mg/kg
- Active Dose (hemilesioned rat 6-OHDA model) (rat [5]): ≤30 mg/kg
